{"source": "ChEMBL document CHEMBL1137881", "about": "“Synthesis of acyloxymethyl ester prodrugs of the transferable protein farnesyl transferase substrate farnesyl methylenediphosphonate” (Bioorg Med Chem Lett, 2004)", "assay_type_in_all_cases": "protein-complex assay", "key": {"[1]": {"tested_on": "CC(C)=CCC/C(C)=C/CC/C(C)=C/COP(=O)(O)CP(=O)(O)O", "assay": "(§1) Michaelis-Menten constant against Farnesyltransferase"}, "[2]": {"tested_on": "CC(C)=CCC/C(C)=C/CC/C(C)=C/COP(=O)(O)OP(=O)(O)O", "assay": "as §1"}, "[3]": {"target": "T1, Protein farnesyltransferase (Homo sapiens) (UniProt P49354+P49356)", "assay": "Ratio of Kcat to Km for farnesyltransferase"}, "[4]": {"target": "T1, Protein farnesyltransferase (Homo sapiens)", "assay": "Catalytic constant against Farnesyltransferase"}}, "data": [{"compound": "Protein farnesyltransferase (Homo sapiens) (from UniProt P49354+P49356)", "values": [{"measurement": "Km", "setting": "[1]", "value": 0.18, "unit": "µM"}, {"measurement": "Km", "setting": "[2]", "value": 0.04, "unit": "µM"}]}, {"compound": "CC(C)=CCC/C(C)=C/CC/C(C)=C/COP(=O)(O)OP(=O)(O)O", "values": [{"measurement": "Ratio", "setting": "[3]", "value": "2e+06", "unit": "M⁻¹ s⁻¹"}, {"measurement": "K cat", "setting": "[4]", "value": 0.09, "unit": "s⁻¹"}]}, {"compound": "CC(C)=CCC/C(C)=C/CC/C(C)=C/COP(=O)(O)CP(=O)(O)O", "values": [{"measurement": "Ratio", "setting": "[3]", "value": 300000, "unit": "M⁻¹ s⁻¹"}, {"measurement": "K cat", "setting": "[4]", "value": 0.06, "unit": "s⁻¹"}]}]}
